Values quoted from earlier work in patent US7528137B2, “Compounds, compositions, and methods” (Cytokinetics, Inc., priority 2002, dated 2009).

Tested on: A549 cells
Conditions: data provided by National Cancer Institute, Developmental Therapeutic Program

| SMILES | GI50 [nM] |
| --- | --- |
| O=c1[nH]cc(F)c(=O)[nH]1 [5-fluorouracil] | 1000 |
| COc1cccc2c1C(=O)c1c(O)c3c(c(O)c1C2=O)C[C@@](O)(C(=O)CO)C[C@@H]3O[C@H]1C[C@H](N)[C@H](O)[C@H](C)O1 [doxorubicin] | 63 |
| NC(=O)NO [hydroxyurea] | 500000 |
| CC(=O)O[C@H]1C(=O)[C@@]2(C)[C@H]([C@H](OC(=O)c3ccccc3)[C@]3(O)C[C@H](OC(=O)[C@H](O)[C@@H](NC(=O)c4ccccc4)c4ccccc4)C(C)=C1C3(C)C)[C@]1(OC(C)=O)CO[C@@H]1C[C@@H]2O [paclitaxel] | 4 |
